These results are taken from PubChem BioAssay AID1259407 (Chemical Carcinogenesis Research Information System (CCRIS), 2018).

Calls of active or inactive are those of the source. The rule behind the calls is not given here.

The series relates to CCRIS mutagenicity, Ames/micronucleus/aberration tests. In words: CCRIS mutagenicity studies.
The mark [1] stands for this setting: Test System: AMES SALMONELLA TYPHIMURIUM, Strain/Indicator: TA98, Metabolic Activation: NONE, Method: STANDARD PLATE.
[2] abbreviates: Test System: AMES SALMONELLA TYPHIMURIUM, Strain/Indicator: TA98, Metabolic Activation: RAT, LIVER, S-9, AROCLOR 1254, Method: STANDARD PLATE.
Where [3] appears, read: Test System: AMES SALMONELLA TYPHIMURIUM, Strain/Indicator: TA100, Metabolic Activation: NONE, Method: STANDARD PLATE.

As for `Cc1c(N=C=O)cccc1N=C=O`, the mutagenic call is, setting by setting: (End Point: IN VITRO CHROMOSOMAL ABERRATIONS, Test System: CHL CELLS, Metabolic Activation: RAT, LIVER, S-9, SODIUM PHENOBARBITAL AND 5,6-BENZOFLAVONE) “active; positive (ploidy changes); authors report equivocal results for structural chang”; (End Point: IN VITRO CHROMOSOMAL ABERRATIONS, Test System: CHO CELLS, Metabolic Activation: RAT, LIVER, S-9, AROCLOR 1254) “inactive; negative; precipitation occurred at 500 ug/ml”; (Test System: AMES SALMONELLA TYPHIMURIUM, Strain/Indicator: TA97, Metabolic Activation: HAMSTER, LIVER, S-9, AROCLOR 1254 (10%), Method: PREINCUBATION) “inactive; negative”; (Test System: AMES SALMONELLA TYPHIMURIUM, Strain/Indicator: TA97, Metabolic Activation: NONE, Method: PREINCUBATION) “inactive; negative”; (Test System: AMES SALMONELLA TYPHIMURIUM, Strain/Indicator: TA97, Metabolic Activation: RAT, LIVER, S-9, AROCLOR 1254 (10%), Method: PREINCUBATION) “inactive; negative”; (Test System: AMES SALMONELLA TYPHIMURIUM, Strain/Indicator: TA98, Metabolic Activation: HAMSTER, LIVER, S-9, AROCLOR 1254 (10%), Method: PREINCUBATION) “active; positive”. In addition, the mutagenic call is, setting by setting: (Test System: AMES SALMONELLA TYPHIMURIUM, Strain/Indicator: TA98, Metabolic Activation: NONE, Method: PREINCUBATION) “inactive; negative”; (Test System: AMES SALMONELLA TYPHIMURIUM, Strain/Indicator: TA98, Metabolic Activation: RAT LIVER S-9 AROCLOR 1254 (10 OR 30%), Method: STANDARD PLATE) “active; positive”; (Test System: AMES SALMONELLA TYPHIMURIUM, Strain/Indicator: TA98, Metabolic Activation: RAT, LIVER, S-9, AROCLOR 1254 (10%), Method: PREINCUBATION) “active; positive”; (Test System: AMES SALMONELLA TYPHIMURIUM, Strain/Indicator: TA100, Metabolic Activation: HAMSTER, LIVER, S-9, AROCLOR 1254 (10%), Method: PREINCUBATION) “active; positive”; (Test System: AMES SALMONELLA TYPHIMURIUM, Strain/Indicator: TA100, Metabolic Activation: NONE, Method: PREINCUBATION) “inactive; negative”; (Test System: AMES SALMONELLA TYPHIMURIUM, Strain/Indicator: TA100, Metabolic Activation: RAT, LIVER, S-9, AROCLOR 1254 (10%), Method: PREINCUBATION) “inactive; negative”. The mutagenic call (Test System: AMES SALMONELLA TYPHIMURIUM, Strain/Indicator: TA1535, Metabolic Activation: HAMSTER, LIVER, S-9, AROCLOR 1254 (10%), Method: PREINCUBATION) was “inactive; negative”; the mutagenic call (Test System: AMES SALMONELLA TYPHIMURIUM, Strain/Indicator: TA1535, Metabolic Activation: NONE, Method: PREINCUBATION) was “inactive; negative”; the mutagenic call (Test System: AMES SALMONELLA TYPHIMURIUM, Strain/Indicator: TA1535, Metabolic Activation: RAT LIVER S-9, PHENOBARBITAL AND BETA-NAPHTHOFLAVONE, Method: PREINCUBATION) was “inactive; negative”; the mutagenic call (Test System: AMES SALMONELLA TYPHIMURIUM, Strain/Indicator: TA1535, Metabolic Activation: RAT, LIVER, S-9, AROCLOR 1254 (10%), Method: PREINCUBATION) is “inactive; negative”; the mutagenic call (Test System: AMES SALMONELLA TYPHIMURIUM, Strain/Indicator: TA1537, Metabolic Activation: NONE, Method: PREINCUBATION) is “inactive; negative”; the mutagenic call (Test System: AMES SALMONELLA TYPHIMURIUM, Strain/Indicator: TA1537, Metabolic Activation: RAT LIVER S-9, AROCLOR 1254 (10 OR 30%), Method: STANDARD PLATE) is “inactive; negative”. The mutagenic call (Test System: AMES SALMONELLA TYPHIMURIUM, Strain/Indicator: TA1537, Metabolic Activation: RAT LIVER S-9, PHENOBARBITAL AND BETA-NAPHTHOFLAVONE, Method: PREINCUBATION) was “inactive; negative”; the mutagenic call (Test System: E.COLI, Strain/Indicator: WP2UVRA, Metabolic Activation: NONE, Method: PREINCUBATION) is “inactive; negative”; the mutagenic call (Test System: E.COLI, Strain/Indicator: WP2UVRA, Metabolic Activation: RAT LIVER S-9, PHENOBARBITAL AND BETA-NAPHTHOFLAVONE, Method: PREINCUBATION) was “inactive; negative”; the mutagenic call (Test System: MOUSE LYMPHOMA, Strain/Indicator: L5178Y (TK+/TK-), Metabolic Activation: NONE, Method: SUSPENSION/PLATE) was “active; positive”; the mutagenic call (Test System: MOUSE LYMPHOMA, Strain/Indicator: L5178Y (TK+/TK-), Metabolic Activation: RAT, LIVER, S-9, AROCLOR 1254, Method: SUSPENSION/PLATE) was “active; positive”.
For `CC(=O)Nc1ccc2c3c(cccc13)-c1cc(O)ccc1-2`, the mutagenic call under setting [1] was “active; positive” and the mutagenic call under setting [2] was “active; positive”.
For `CC(=O)O[C@H]1C(=O)[C@@]2(C)[C@H]([C@H](OC(=O)c3ccccc3)[C@]3(O)C[C@H](OC(=O)[C@H](O)[C@@H](NC(=O)c4ccccc4)c4ccccc4)C(C)=C1C3(C)C)[C@]1(OC(C)=O)CO[C@@H]1C[C@@H]2O`, the mutagenic call (End Point: IN VITRO CHROMOSOMAL ABERRATIONS, Test System: PERIPHERAL HUMAN BLOOD LYMPHOCYTES, Metabolic Activation: NONE) was “active; positive (ploidy changes)”; the mutagenic call (End Point: In vitro micronucleus, Test System: Human lymphoblastoid TK6 cells, Metabolic Activation: None) is “active; positive (p<0.001)”; the mutagenic call (End Point: In vivo micronucleus, Test System: Micronucleated, binucleated and multinucleated hepatocytes, Species: Mouse, Strain/Sex: ddY/Male, Route: Intravenous) was “active; positive for micronucleated, binucleated and multinucleated cells when agent adm”; the mutagenic call (Test System: AMES SALMONELLA TYPHIMURIUM, Strain/Indicator: TA97, Metabolic Activation: NONE, Method: STANDARD PLATE) was “inactive; negative”; the mutagenic call (Test System: AMES SALMONELLA TYPHIMURIUM, Strain/Indicator: TA97, Metabolic Activation: S-9, Method: STANDARD PLATE) was “inactive; negative”; the mutagenic call under setting [1] is “inactive; negative”. Also, the mutagenic call (Test System: AMES SALMONELLA TYPHIMURIUM, Strain/Indicator: TA98, Metabolic Activation: S-9, Method: STANDARD PLATE) is “inactive; negative”; the mutagenic call under setting [3] was “inactive; negative”; the mutagenic call (Test System: AMES SALMONELLA TYPHIMURIUM, Strain/Indicator: TA100, Metabolic Activation: S-9, Method: STANDARD PLATE) was “inactive; negative”; the mutagenic call (Test System: AMES SALMONELLA TYPHIMURIUM, Strain/Indicator: TA102, Metabolic Activation: NONE, Method: STANDARD PLATE) was “inactive; negative”; the mutagenic call (Test System: AMES SALMONELLA TYPHIMURIUM, Strain/Indicator: TA102, Metabolic Activation: S-9, Method: STANDARD PLATE) is “inactive; negative”; the mutagenic call (Test System: Mouse lymphoma, Strain/Indicator: L5178Y (Tk+/Tk-), Metabolic Activation: None, Method: Microwell) was “active; positive”.
For `CC(C)(C)NC[C@H](O)COc1nsnc1N1CCOCC1`, the mutagenic call runs as follows: under setting [1], “inactive; negative”; under setting [2], “inactive; negative”; under setting [3], “inactive; negative”; (Test System: AMES SALMONELLA TYPHIMURIUM, Strain/Indicator: TA100, Metabolic Activation: RAT, LIVER, S-9, AROCLOR 1254, Method: STANDARD PLATE) “inactive; negative”.
With `Nc1nc2c(ncn2COCCO)c(=O)[nH]1`, the mutagenic call (End Point: IN VITRO CHROMOSOMAL ABERRATIONS, Test System: CHO CELLS (CHO-HSVTK), Metabolic Activation: NONE) was “active; positive (structural changes); concentration chosen also induced apoptosis”.
